Tests used:
[1] = biological target: T1, human B1R receptor (CHO K1 cells stably transfected with the human B1R gene) (Homo sapiens, UniProt P46663); assay: Functional study on the bradykinin receptor 1 (B1R), Ca2+ fluorescence (Fluo-4) FLIPR/Novostar assay, hB1R cells; format: cell-based; settings: CHO-K1, read-out: % inhibition (human B1R) at 10 μM
T1 construct: expressed in transfected cells; host or cells: CHO K1 cells (Chinese hamster ovary), stably transfected
T1 sequence (P46663 1-353): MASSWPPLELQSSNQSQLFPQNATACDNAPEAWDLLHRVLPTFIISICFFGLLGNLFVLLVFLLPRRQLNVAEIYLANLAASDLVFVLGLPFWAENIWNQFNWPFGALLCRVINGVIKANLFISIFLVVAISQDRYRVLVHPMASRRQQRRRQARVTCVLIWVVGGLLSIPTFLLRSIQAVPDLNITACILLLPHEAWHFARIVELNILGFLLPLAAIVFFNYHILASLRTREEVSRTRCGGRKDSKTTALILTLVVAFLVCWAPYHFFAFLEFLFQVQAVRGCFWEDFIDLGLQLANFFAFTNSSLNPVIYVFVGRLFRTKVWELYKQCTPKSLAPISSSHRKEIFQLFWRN
In short: (§1)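 Stably transfected CHO K1 cells carrying human or rat B1R were Fluo-4 loaded and Ca2+ fluorescence read by FLIPR or Novostar. Compounds were added first at 10 μM for % activation, then the EC80 agonist was applied after 6-20 min (human: Lys-Des-Arg9-bradykinin; rat: Des-Arg9-bradykinin). % inhibition is relative to maximum achievable inhibition, and IC50 comes from concentration series.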

[2] = biological target: T2, B1R receptor of the rat (CHO K1 cells stably transfected with the B1R gene of the rat) (Rattus norvegicus, UniProt P97583); assay: Functional study on the bradykinin receptor 1 (B1R), Ca2+ fluorescence (Fluo-4) FLIPR/Novostar assay, rB1R cells; format: cell-based; settings: CHO-K1, 10 μM, read-out: % inhibition (rat B1R) at 10 μM
T2 construct: expressed in transfected cells; host or cells: CHO K1 cells (Chinese hamster ovary), stably transfected
T2 sequence (P97583 1-337): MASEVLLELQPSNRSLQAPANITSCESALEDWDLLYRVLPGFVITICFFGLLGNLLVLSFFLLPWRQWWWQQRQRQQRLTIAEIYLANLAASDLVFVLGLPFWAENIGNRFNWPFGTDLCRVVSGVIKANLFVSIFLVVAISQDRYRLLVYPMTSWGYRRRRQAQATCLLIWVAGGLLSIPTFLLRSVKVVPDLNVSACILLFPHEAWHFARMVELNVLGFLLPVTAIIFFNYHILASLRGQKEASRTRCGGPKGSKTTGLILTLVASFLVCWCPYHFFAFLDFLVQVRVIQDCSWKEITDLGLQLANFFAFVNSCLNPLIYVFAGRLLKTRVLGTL
In short: as §1

| Compound | inhibition at 10 µM [1] [%] | inhibition at 10 µM [2] [%] |
| --- | --- | --- |
| Cc1cc(N2CCC(N(C)C(=O)c3ccc4c(c3)[C@H](NC(=O)c3cc(C)on3)CC4)CC2)nc(C)n1 [Example H-96, N-[(1R)-6-[[1-(2,6-Dimethyl-pyrimidin-4-yl)-piperidin-4-yl]-methyl-carbamoyl]-2,3-dihydro-1H-inden-1-yl]-5-methyl-isoxazole-3-carboxylic acid amide] | 100 | 104 |
| CN(C(=O)c1ccc2c(c1)[C@H](NC(=O)c1ccccc1Cl)CC2)C1CCN(c2cc[n+]([O-])cc2)CC1 [Example H-98, (3R)-3-[(2-Chloro-benzoyl)amino]-N-methyl-N-[1-(1-oxido-pyridin-1-ium-4-yl)-piperidin-4-yl]-2,3-dihydro-1H-indene-5-carboxylic acid amide] | 100 | 105 |
| CN(C(=O)c1ccc2c(c1)[C@H](NC(=O)c1ccccc1Cl)CC2)C1CCC(N2CCc3cnccc3C2)CC1 (stereo partly drawn) [Example H-99, (3R)-3-[(2-Chloro-benzoyl)amino]-N-methyl-N-[4-(1,2,3,4-tetrahydro-[2,6]naphthyridin-2-yl)-cyclohexyl]-2,3-dihydro-1H-indene-5-carboxylic acid amide] | 81 | 104 |
| CN(C)c1cc(N2CCC(N(C)C(=O)c3ccc4c(c3)[C@H](NC(=O)c3ccccc3Cl)CC4)CC2)ccn1 [Example H-100, (3R)-3-[(2-Chloro-benzoyl)amino]-N-[1-(2-dimethylamino-pyridin-4-yl)-piperidin-4-yl]-N-methyl-2,3-dihydro-1H-indene-5-carboxylic acid amide] | 100 | 103 |

The remaining lines, values ahead:

| inhibition at 10 µM [1] [%] | inhibition at 10 µM [2] [%] | Compound |
| --- | --- | --- |
| 13 | 95 | COc1ccc(N2CCC(N(C)C(=O)c3ccc4c(c3)[C@H](NC(=O)c3ccccc3Cl)CC4)CC2)cn1 [Example H-101, (3R)-3-[(2-Chloro-benzoyl)amino]-N-[1-(6-methoxy-pyridin-3-yl)-piperidin-4-yl]-N-methyl-2,3-dihydro-1H-indene-5-carboxylic acid amide] |
| 68 | 103 | CN(C)c1ncc2c(n1)CCN(C1CCC(N(C)C(=O)c3ccc4c(c3)[C@H](NC(=O)c3ccccc3Cl)CC4)CC1)C2 (stereo partly drawn) [Example H-102, (3R)-3-[(2-Chloro-benzoyl)amino]-N-[4-(2-dimethylamino-5,6,7,8-tetrahydro-pyrido[4,3-d]pyrimidin-6-yl)-cyclohexyl]-N-methyl-2,3-dihydro-1H-indene-5-carboxylic acid amide] |
| 27 | 72 | CN1CCN([C@@H]2CCC[C@H](N(C)C(=O)c3ccc4c(c3)[C@H](NC(=O)c3ccccc3Cl)CC4)C2)CC1 [Example H-103, (3R)-3-[(2-Chloro-benzoyl)amino]-N-methyl-N-[(1S,3R)-3-(4-methyl-piperazin-1-yl)-cyclohexyl]-2,3-dihydro-1H-indene-5-carboxylic acid amide] |
| 75 | 37 | CN1CCN([C@@H]2CCC[C@H](N(C)C(=O)c3ccc4c(c3)[C@H](NS(=O)(=O)c3ccccc3Cl)CC4)C2)CC1 [Example H-104, (3R)-3-[[(2-Chlorophenyl)sulfonyl]amino]-N-methyl-N-[(1S,3R)-3-(4-methyl-piperazin-1-yl)-cyclohexyl]-2,3-dihydro-1H-indene-5-carboxylic acid amide] |
| 23 | 26 | CN(C(=O)c1ccc2c(c1)C(N(C(=O)c1ccccc1Cl)C(C)(C)C)CC2)C1CCN(c2ccncc2)CC1 (stereo not drawn) [Example H-110, 3-[tert-Butyl-(2-chloro-benzoyl)-amino]-N-methyl-N-(1-pyridin-4-yl-piperidin-4-yl)-2,3-dihydro-1H-indene-5-carboxylic acid amide] |

Source: US8680159B2, “Bradykinin 1 receptor modulating compounds” (Gruenenthal GmbH, priority 2010, dated 2014)
